Measurements published in patent US7344829B2, “Methods for detecting the efficacy of anticancer treatments” (Board of Regents, the University of Texas System, priority 2000, dated 2008).

Key:
Format in all cases: biochemical
[1] = biological target: PKC-α (Homo sapiens, UniProt P17252); experiment: PKC inhibition assay
Description: (§1) GST-fused kinase domains of Kdr, Flt-1, Flk, Tek, c-Met, and c-Kit were expressed in baculovirus and purified over glutathione-Sepharose. Kinase inhibition was measured by detecting the decrease in phosphorylation of poly(Glu,Tyr 4:1) essentially as previously described for EGF-R. Each kinase was incubated under optimized buffer conditions in 20 mM Tris-HCl, pH 7.5, 1–3 mM MnCl2, 3–10 mM MgCl2, 10 μM Na3VO4, 1 mM DTT, 0.2 μCi/[γ-^33P]ATP, 1–8 μM ATP, 3–8 μg/ml poly(Glu,Tyr 4:1), 1% DMSO in a total volume of 30 μl in the presence or absence of PKI166 for 10 min at ambient temperature. Reactions were terminated by adding 10 μl of 250 mM EDTA, and the reaction mixture was transferred onto an Immobilon-PVDG membrane (Millipore, Bedford, Mass.). Following a washing (0.5% H3PO4), a soaking in EtOH, and drying, filters were counted in a liquid scintillation counter. IC50 values for PKI166 were calculated by linear regression analysis of the percentage inhibition. Inhibition of Cdc2/cyclin B protein kinase (Arion et al. 1988; Partanen et al. 1991) and PKC (McGlynn et al. 1992b) was assayed as previously described.

[2] = biological target: T1, Tek (Homo sapiens, UniProt Q02763); experiment: GST-fused kinase domain assay, Tek
T1 construct: GST-fused kinase domains of Kdr, Flt-1, Flk, Tek, c-Met, and c-Kit were expressed in baculovirus; GST; made in house
Description: as §1

[3] = biological target: T2, KDR (Homo sapiens, UniProt P35968); experiment: GST-fused kinase domain assay, KDR
T2 construct: GST-fused kinase domains of Kdr, Flt-1, Flk, Tek, c-Met, and c-Kit were expressed in baculovirus; GST; made in house
Description: as §1

T2 sequence (P35968 834-1162 limits assumed): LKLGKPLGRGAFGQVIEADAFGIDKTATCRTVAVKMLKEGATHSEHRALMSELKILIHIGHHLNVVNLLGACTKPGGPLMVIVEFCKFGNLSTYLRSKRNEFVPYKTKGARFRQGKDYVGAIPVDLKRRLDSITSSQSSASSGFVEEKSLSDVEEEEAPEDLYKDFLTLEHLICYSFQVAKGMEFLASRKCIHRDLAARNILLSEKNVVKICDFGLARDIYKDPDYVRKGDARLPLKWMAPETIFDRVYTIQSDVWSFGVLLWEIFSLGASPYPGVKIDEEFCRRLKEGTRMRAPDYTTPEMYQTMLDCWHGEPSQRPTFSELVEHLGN
T1 sequence (Q02763 824-1096 limits assumed, species assumed): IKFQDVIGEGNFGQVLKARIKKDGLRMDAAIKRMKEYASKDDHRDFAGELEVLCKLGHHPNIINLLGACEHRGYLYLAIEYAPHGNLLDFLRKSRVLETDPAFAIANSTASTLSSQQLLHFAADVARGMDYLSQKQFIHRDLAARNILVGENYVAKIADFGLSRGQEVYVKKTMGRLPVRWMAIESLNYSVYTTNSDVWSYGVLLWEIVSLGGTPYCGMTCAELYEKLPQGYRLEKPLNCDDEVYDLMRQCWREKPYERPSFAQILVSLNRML

For `C[C@@H](Nc1ncnc2[nH]c(-c3ccc(O)cc3)cc12)c1ccccc1` [PKI166, 4-(R)-phenethylamino-6-(hydroxyl) phenyl-7H-pyrrolo[2.3-d]-pyrimidine], the IC50 [1] was > 100 µM, the IC50 [2] was > 1000 nM and the IC50 [3] was 327 nM.
